Literature values in patent US8071763B2, “Methods for treatment of nocturia” (Daiichi Sankyo Company, Limited, priority 2002, dated 2011).
Where two headings read alike, the source gives them in different places.

Experiments:
nocturia [1] = conditions: 100 mg suppository, open trial, 15 patients; cited from earlier work
nocturia [2] = conditions: one patient; suppository administered as antipyretics; cited from earlier work

COc1ccc2c(c1)c(CC(=O)O)c(C)n2C(=O)c1ccc(Cl)cc1 [indomethacin]
Effect on nocturia (nocturia [1]): improved nocturia in all 15 patients
Effect on nocturia (nocturia [2]): nocturia was improved
